# From ChEMBL document CHEMBL4425179, “Colorectal anticancer activities of polymethoxylated 3-naphthyl-5-phenylpyrazoline-carbothioamides” (Bioorg Med Chem Lett, 2016)
# Active and inactive are the calls of the source. The calls are words filed in the database; no cut-off is given here.
# Assays:
# HCT-116 [1] = assay: Growth inhibition of human HCT116 cells after 7 days by clonogenic survival assay; type: functional; details: HCT-116, 168 h
# HCT-116 [2] = assay: Cell cycle arrest in human HCT116 cells assessed as accumulation at G1 phase after 24 to 48 hrs by propidium iodide staining based flow cytometry; type: functional
# HCT-116 [3] = assay: Cytotoxicity against human HCT116 cells assessed as decrease in cell viability after 24 hrs by WST-8 based CCK-8 assay; type: functional
# Aurora kinase B [4] = biological target: T1, Aurora kinase B (Homo sapiens, UniProt Q96GD4); assay: Inhibition of aurora B phosphorylation at Thr-232 in human HCT116 cells at 20 uM by Western blot analysis; type: cell-based; details: TDE = time-dependent effect
# T1 sequence (Q96GD4 whole entry): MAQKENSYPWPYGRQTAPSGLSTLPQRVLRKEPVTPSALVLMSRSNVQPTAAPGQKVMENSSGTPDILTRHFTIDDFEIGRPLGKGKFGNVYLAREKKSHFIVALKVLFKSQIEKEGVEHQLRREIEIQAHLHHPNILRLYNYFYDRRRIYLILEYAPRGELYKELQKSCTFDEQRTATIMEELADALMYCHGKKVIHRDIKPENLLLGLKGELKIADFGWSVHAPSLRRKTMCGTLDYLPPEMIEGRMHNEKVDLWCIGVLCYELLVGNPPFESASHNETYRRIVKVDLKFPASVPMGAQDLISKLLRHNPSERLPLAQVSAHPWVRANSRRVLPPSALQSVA
# HCT-116 [5] = assay: Cell cycle arrest in human HCT116 cells assessed as accumulation at G2/M phase at 20 uM after 24 to 48 hrs by propidium iodide staining based flow cytometry (reference value: 22.9 to 24%); type: functional
# HCT-116 [6] = assay: Cell cycle arrest in human HCT116 cells assessed as accumulation at S phase at 10 uM after 24 to 48 hrs by propidium iodide staining based flow cytometry (reference value: 13 to 18%); type: functional
# HCT-116 [7] = assay: Cell cycle arrest in human HCT116 cells assessed as accumulation at sub-G1 phase at 20 uM after 48 hrs by propidium iodide staining based flow cytometry (reference value: 4%); type: functional
# HCT-116 [8] = assay: Downregulation of cyclin B1 expression in human HCT116 cells at 20 uM by Western blot analysis; type: functional, cell-based; details: TDE = time-dependent effect
# HCT-116 [9] = assay: Induction of apoptosis in human HCT116 cells assessed as PARP cleavage at 20 uM after 36 hrs by Western blot analysis; type: functional, cell-based
# [10] = biological target: T2, Aurora kinase A (Homo sapiens) (UniProt O14965); assay: Inhibition of aurora A in human HCT116 cells assessed as decrease in histone H3 phosphorylation at Ser-10 at 20 uM by Western blot analysis; type: cell-based; details: TDE = time-dependent effect
# T2 sequence (whole entry): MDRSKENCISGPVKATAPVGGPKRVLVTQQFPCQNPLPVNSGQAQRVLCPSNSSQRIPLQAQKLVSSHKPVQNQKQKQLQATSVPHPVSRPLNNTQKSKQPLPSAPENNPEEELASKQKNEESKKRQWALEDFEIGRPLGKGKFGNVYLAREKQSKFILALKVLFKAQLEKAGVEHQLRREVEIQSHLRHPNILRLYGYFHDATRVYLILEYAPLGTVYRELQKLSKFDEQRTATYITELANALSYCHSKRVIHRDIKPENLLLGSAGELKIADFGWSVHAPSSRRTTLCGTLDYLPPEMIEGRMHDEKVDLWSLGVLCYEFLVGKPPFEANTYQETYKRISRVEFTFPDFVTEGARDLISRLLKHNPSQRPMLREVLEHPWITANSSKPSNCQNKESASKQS
# [11] = biological target: T2, Aurora kinase A (Homo sapiens); assay: Inhibition of aurora A phosphorylation at Thr-288 in human HCT116 cells at 20 uM by Western blot analysis; type: cell-based; details: TDE = time-dependent effect
# HCT-116 [12] = assay: Cell cycle arrest in human HCT116 cells assessed as accumulation at G1 phase at 20 uM after 24 to 48 hrs by propidium iodide staining based flow cytometry (reference value: 51 to 58.9%); type: functional
# [13] = biological target: T3, Aurora kinase C (Homo sapiens) (UniProt Q9UQB9); assay: Inhibition of aurora C phosphorylation at Thr-198 in human HCT116 cells at 20 uM by Western blot analysis; type: cell-based; details: TDE = time-dependent effect
# T3 sequence (whole entry): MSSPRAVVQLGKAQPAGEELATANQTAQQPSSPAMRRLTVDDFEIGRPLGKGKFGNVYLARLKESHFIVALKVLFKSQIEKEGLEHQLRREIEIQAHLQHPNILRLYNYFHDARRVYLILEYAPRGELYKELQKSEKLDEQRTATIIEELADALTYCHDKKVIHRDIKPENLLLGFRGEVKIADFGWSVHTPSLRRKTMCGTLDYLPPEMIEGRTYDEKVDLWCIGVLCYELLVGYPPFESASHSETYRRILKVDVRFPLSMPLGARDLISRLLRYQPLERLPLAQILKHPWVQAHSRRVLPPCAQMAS
# HCT-116 [14] = assay: Cell cycle arrest in human HCT116 cells assessed as accumulation at G1 phase at 40 uM after 24 to 48 hrs by propidium iodide staining based flow cytometry (reference value: 51 to 58.9%); type: functional
# Aurora kinase A = biological target: T4, Aurora kinase A (Homo sapiens, UniProt O14965); assay: Inhibition of human recombinant N-terminal His6-tagged full-length aurora A expressed in Sf21 insect cells using ER-alpha as substrate after 25 mins by immunoblot analysis
# T4 sequence (O14965 whole entry): T2 sequence (whole entry)
# Aurora kinase B [15] = biological target: T1, Aurora kinase B; assay: Inhibition of human recombinant His-tagged aurora B expressed in baculovirus infected Sf21 insect cells by Western blot analysis
# HCT-116 [16] = assay: Induction of apoptosis in human HCT116 cells assessed as caspase 3 cleavage at 20 uM after 36 hrs by Western blot analysis; type: functional, cell-based
# HCT-116 [17] = assay: Downregulation of cyclin D1 expression in human HCT116 cells at 20 uM by Western blot analysis; type: functional, cell-based; details: TDE = time-dependent effect
# Aurora kinase B [18] = biological target: T1, Aurora kinase B; assay: Inhibition of aurora B in human HCT116 cells assessed as decrease in histone H3 phosphorylation at Ser-10 at 20 uM by Western blot analysis; type: cell-based; details: TDE = time-dependent effect
# HCT-116 [19] = assay: Cell cycle arrest in human HCT116 cells assessed as accumulation at S phase at 20 uM after 24 to 48 hrs by propidium iodide staining based flow cytometry (reference value: 13 to 18%); type: functional
# HCT-116 [20] = assay: Induction of apoptosis in human HCT116 cells assessed as caspase 9 cleavage at 20 uM after 36 hrs by Western blot analysis; type: functional, cell-based
# HCT-116 [21] = assay: Cell cycle arrest in human HCT116 cells assessed as accumulation at G1 phase at 10 uM after 24 to 48 hrs by propidium iodide staining based flow cytometry (reference value: 51 to 58.9%); type: functional
# HCT-116 [22] = assay: Cell cycle arrest in human HCT116 cells assessed as accumulation at G2/M phase at 10 uM after 24 to 48 hrs by propidium iodide staining based flow cytometry (reference value: 22.9 to 24%); type: functional
# HCT-116 [23] = assay: Cell cycle arrest in human HCT116 cells assessed as accumulation at G2/M phase at 40 uM after 24 to 48 hrs by propidium iodide staining based flow cytometry (reference value: 22.9 to 24%); type: functional
# Homo sapiens = species: Homo sapiens; assay: Selectivity ratio of IC50 for human recombinant N-terminal His6-tagged full-length aurora A to IC50 for human recombinant His-tagged aurora B
# HCT-116 [24] = assay: Cell cycle arrest in human HCT116 cells assessed as accumulation at S phase at 40 uM after 24 to 48 hrs by propidium iodide staining based flow cytometry (reference value: 13 to 18%); type: functional
# HCT-116 [25] = assay: Induction of apoptosis in human HCT116 cells assessed as caspase 7 cleavage at 20 uM after 36 hrs by Western blot analysis; type: functional, cell-based
smiles,measurement,setting,value
COc1ccc(NC(=S)N2N=C(c3c(O)ccc4ccccc34)CC2c2ccccc2OC)cc1 (stereo not given),GI50,HCT-116 [1]; read-out: GI50,742 nM
same,GI50,HCT-116 [1]; read-out: pGI50 (converted),741 nM
COc1ccc(NC(=S)N2N=C(c3ccc4ccccc4c3O)CC2c2ccccc2OC)c(OC)c1 (stereo not given),GI50,HCT-116 [1]; read-out: GI50,4200 nM
same,GI50,HCT-116 [1]; read-out: pGI50 (converted),4170 nM
COc1ccc(NC(=S)N2N=C(c3ccc4ccccc4c3O)CC2c2ccc(OC)cc2)cc1 (stereo not given),GI50,HCT-116 [1]; read-out: GI50,234 nM
same,GI50,HCT-116 [1]; read-out: pGI50 (converted),234 nM
COc1ccc(C2CC(c3ccc4ccccc4c3O)=NN2C(=S)Nc2ccccc2)cc1 (stereo not given),GI50,HCT-116 [1]; read-out: GI50,239 nM
same,GI50,HCT-116 [1]; read-out: pGI50 (converted),240 nM
COc1cccc(NC(=S)N2N=C(c3ccc4ccccc4c3O)CC2c2cccc(OC)c2)c1 (stereo not given),GI50,HCT-116 [1]; read-out: GI50,272 nM
same,GI50,HCT-116 [1]; read-out: pGI50 (converted),269 nM
COc1cccc(C2CC(c3ccc4ccccc4c3O)=NN2C(=S)Nc2cc(OC)c(OC)c(OC)c2)c1 (stereo not given),GI50,HCT-116 [1]; read-out: GI50,201 nM
same,GI50,HCT-116 [1]; read-out: pGI50 (converted),200 nM
COc1cccc(C2CC(c3ccc4ccccc4c3O)=NN2C(=S)Nc2ccccc2)c1 (stereo not given),GI50,HCT-116 [1]; read-out: GI50,321 nM
same,GI50,HCT-116 [1]; read-out: pGI50 (converted),324 nM
COc1ccc(C2CC(c3ccc4ccccc4c3O)=NN2C(=S)Nc2ccc(OC)cc2OC)cc1 (stereo not given),GI50,HCT-116 [1]; read-out: GI50,2470 nM
same,GI50,HCT-116 [1]; read-out: pGI50 (converted),2450 nM
COc1ccc(NC(=S)N2N=C(c3ccc4ccccc4c3O)CC2c2cccc(OC)c2)cc1 (stereo not given),GI50,HCT-116 [1]; read-out: GI50,318 nM
same,GI50,HCT-116 [1]; read-out: pGI50 (converted),316 nM
COc1ccc(C2CC(c3ccc4ccccc4c3O)=NN2C(=S)Nc2cc(OC)c(OC)c(OC)c2)cc1 (stereo not given),GI50,HCT-116 [1]; read-out: GI50,208 nM
same,GI50,HCT-116 [1]; read-out: pGI50 (converted),209 nM
COc1cccc(C2CC(c3ccc4ccccc4c3O)=NN2C(=S)Nc2ccccc2OC)c1 (stereo not given),GI50,HCT-116 [1]; read-out: GI50,3920 nM
same,GI50,HCT-116 [1]; read-out: pGI50 (converted),3890 nM
COc1ccccc1C1CC(c2c(O)ccc3ccccc23)=NN1C(=S)Nc1cc(OC)c(OC)c(OC)c1 (stereo not given),GI50,HCT-116 [1]; read-out: GI50,994 nM
same,GI50,HCT-116 [1]; read-out: pGI50 (converted),1000 nM
COc1ccccc1NC(=S)N1N=C(c2c(O)ccc3ccccc23)CC1c1ccccc1OC (stereo not given),GI50,HCT-116 [1]; read-out: GI50,3970 nM
same,GI50,HCT-116 [1]; read-out: pGI50 (converted),3980 nM
COc1ccc(NC(=S)N2N=C(c3ccc4ccccc4c3O)CC2c2ccccc2OC)cc1 (stereo not given),GI50,HCT-116 [1]; read-out: GI50,369 nM
same,GI50,HCT-116 [1]; read-out: pGI50 (converted),372 nM
COc1ccccc1C1CC(c2ccc3ccccc3c2O)=NN1C(=S)Nc1ccccc1 (stereo not given),GI50,HCT-116 [1]; read-out: GI50,742 nM
same,GI50,HCT-116 [1]; read-out: pGI50 (converted),741 nM
COc1ccc(C2CC(c3ccc4ccccc4c3O)=NN2C(=S)Nc2ccccc2OC)cc1 (stereo not given),GI50,HCT-116 [1]; read-out: GI50,3540 nM
same,GI50,HCT-116 [1]; read-out: pGI50 (converted),3550 nM
COc1ccc(C2CC(c3ccc4ccccc4c3O)=NN2C(=S)Nc2cccc(OC)c2)cc1 (stereo not given),Activity,HCT-116 [2],Dose-dependent effect
same,Activity,HCT-116 [3],Dose-dependent effect
same,inhibition,Aurora kinase B [4],Tde
same,Activity,HCT-116 [5],25.7 - 27%
same,Activity,HCT-116 [6],23.7%
same,Activity,HCT-116 [7],17%
same,Activity,HCT-116 [8],Tde
same,Activity,HCT-116 [9],Active
same,inhibition,[10],Tde
same,inhibition,[11],Tde
same,Activity,HCT-116 [12],18 - 43.2%
same,inhibition,[13],Tde
same,Activity,HCT-116 [14],36.8%
same,IC50,Aurora kinase A,105000 nM
same,IC50,Aurora kinase B [15],8530 nM
same,GI50,HCT-116 [1]; read-out: GI50,196 nM
same,GI50,HCT-116 [1]; read-out: pGI50 (converted),195 nM
same,Activity,HCT-116 [16],Active
same,Activity,HCT-116 [17],Tde
same,inhibition,Aurora kinase B [18],Tde
same,Activity,HCT-116 [19],27.4 - 28%
same,Activity,HCT-116 [20],Active
same,Activity,HCT-116 [21],45.6%
same,Activity,HCT-116 [22],26.8%
same,Activity,HCT-116 [23],30.8%
same,Ratio IC50,Homo sapiens,12.3
same,Activity,HCT-116 [24],29.4%
same,Activity,HCT-116 [25],Active
COc1ccccc1C1CC(c2ccc3ccccc3c2O)=NN1C(=S)Nc1cc(OC)c(OC)c(OC)c1 (stereo not given),GI50,HCT-116 [1]; read-out: GI50,223 nM
same,GI50,HCT-116 [1]; read-out: pGI50 (converted),224 nM
COc1ccccc1C1CC(c2c(O)ccc3ccccc23)=NN1C(=S)Nc1ccccc1 (stereo not given),GI50,HCT-116 [1]; read-out: GI50,2500 nM
same,GI50,HCT-116 [1]; read-out: pGI50 (converted),2510 nM
COc1cccc(NC(=S)N2N=C(c3ccc4ccccc4c3O)CC2c2ccccc2OC)c1 (stereo not given),GI50,HCT-116 [1]; read-out: GI50,445 nM
same,GI50,HCT-116 [1]; read-out: pGI50 (converted),447 nM
COc1cccc(C2CC(c3ccc4ccccc4c3O)=NN2C(=S)Nc2ccc(OC)cc2OC)c1 (stereo not given),GI50,HCT-116 [1]; read-out: GI50,2430 nM
same,GI50,HCT-116 [1]; read-out: pGI50 (converted),2450 nM
COc1ccccc1NC(=S)N1N=C(c2ccc3ccccc3c2O)CC1c1ccccc1OC (stereo not given),GI50,HCT-116 [1]; read-out: GI50,4920 nM
same,GI50,HCT-116 [1]; read-out: pGI50 (converted),4900 nM
